“Also recorded” adds a separate entry of the source. No end group written: not given here.
What was measured:
[1] = system: patient, a child with symptoms of autism; test: Intravenous secretin infusion in a child with symptoms of autism (Example 1): behavioral and biomedical changes; assay type: in vivo, human
Excerpt: The present invention will be better understood from the following examples which are given by way of illustration and not by way of limitation. The patient, the same in both examples, is a child with symptoms of autism.
The patient in the present examples developed normally […], with the exception of gastrointestinal problems (i.e., chronic diarrhea and constipation) which began at about six months. At about thirteen months, when whole milk was introduced into their diet, the patient began having reoccurring ear infections. At about fourteen months, the patient appeared to lose the ability to process language, first receptively (at about 14 months) then expressively (at about 16 months). The patient also experienced episodes of “shivers” that appeared to be intermittent seizures.
After consulting with numerous neurologists, pediatricians, child development specialists, audiologists, endocrinologists, allergists, and other medical professionals, no consistent diagnosis had been reached. […] The term autism is used herein for reference purposes only, and this invention is intended to apply to any number of pervasive developmental disorders as well as neurological and immunological disorders.
(§1) When the patient was […], the secretin was administered by way of an infusion as part of an upper gastrointestinal endoscopy. The secretin was used in this diagnostic procedure at the request of the patient's parents, one of which is an inventor of the present invention. The secretin used in this procedure is known as Secretin-Ferring available from Ferring Laboratories, Inc., Suffern, N.Y. (See Appendix A). The secretin was dissolved in a […] solution of sodium chloride and administered in a dosage of 2 clinical units (CU) per kilogram (kg) body weight by intravenous injection over one minute. (I.E. 30 IU IV for approximately 15 kilograms of body weight.)
(§2) The diagnostic tests performed on the patient during this procedure also indicated gastric inflammation. […] The following Table I summarizes the improvements observed in the patient within 3 weeks after the infusion of secretin.
Biomedical changes were also measured in the patient.
At the request of the patient's parents, a second infusion of secretin was performed about 9 months after the first infusion, and a third infusion of secretin was performed about three months after the second infusion.

[2] = system: pancreas; test: Pancreatic juice release after secretin infusion during upper gastrointestinal endoscopy (Example 1); assay type: in vivo, human; settings: immediately after 2 CU/kg i.v. over one minute; usual rate 1-2 ml/min
Experimental: as §1, §2

[3] = system: patient, a child with symptoms of autism; test: Daily transdermal secretin with DMSO in the same patient (Example 2); assay type: in vivo, human
Experimental: At the time of this treatment, the patient was […]. Secretin was administered transdermally using pharmaceutical grade dimethyl sulfoxide (DMSO) (generally 99.9% pure) available from Clinic Service Co., Box 2512, Hemet Calif. 92543. The secretin (Secretin-Ferring) was administered daily in a dosage of about 75 CU over a five day period (i.e., about 15 CU daily). For each treatment, about 4 drops of DMSO were placed onto the skin of the patient, about 15 CU of the crystalline secretin was placed onto the DMSO, and the composition was rubbed into the skin.

[4] = system: abnormal opioid peptides; settings: autistic children that responded to casein free and gluten free diet; measured before and after infusion; cited from earlier work

secretin (HSDGTFTSELSRLRDSARLQRLLQGLV-NH2; ends and bridges not checked; UniProt P63298 33-59, looked up) [polypeptide hormone secreted by the mucosa of the duodenum and upper jejunum; used as Secretin-Ferring from Ferring Laboratories]
SPECT scan: perfusion of the right posterior parietal and right temporal lobes (blood flow in the brain) ([1]; after the infusion): improved; also recorded: increased blood flow in the brain
Measles, mumps and rubella antibodies ([1]; after the secretin administration in Example 1): reduction of measles, mumps and rubella antibodies
Rubella titers ([1]; after the treatment, dropped from 5.8 before): 2.3
Rate of the patient's progress ([1]; at about 5 weeks after the first infusion, behavioral improvements continued): appeared to decrease
Progress within 3 weeks after the secretin infusion: bowel movements ([1]; before infusion: Abnormal bowel movements, 2 CU/kg i.v.): Normal bowel movements.
Progress within 3 weeks after the secretin infusion: sleeping problems ([1]; before infusion: Consistent sleeping problems, up numerous times each night, 2 CU/kg i.v.): Has slept through almost every night
Progress within 3 weeks after the secretin infusion: toilet training ([1]; before infusion: Diapers only, 2 CU/kg i.v.): Completely potty trained.
Progress within 3 weeks after the secretin infusion: imitation of commands ([1]; before infusion: Did not imitate commands, 2 CU/kg i.v.): Will imitate almost any multi-step
Progress within 3 weeks after the secretin infusion: spinning episodes ([1]; before infusion: Infrequent (1-2 times/week) spinning episodes, 2 CU/kg i.v.): No spinning episodes.
Progress within 3 weeks after the secretin infusion: diet preferences ([1]; before infusion: Limited Diet Preferences, 2 CU/kg i.v.): No Change
Progress within 3 weeks after the secretin infusion: eye contact ([1]; before infusion: Minimal eye contact, 2 CU/kg i.v.): Eye contact 75% of the time.
Progress within 3 weeks after the secretin infusion: connections between language and objects ([1]; before infusion: No apparent connections made, 2 CU/kg i.v.): Many connections made between
Progress within 3 weeks after the secretin infusion: flash cards ([1]; before infusion: No flash cards, 2 CU/kg i.v.): 40-50 flash cards.
Progress within 3 weeks after the secretin infusion: interest in drawing ([1]; before infusion: No interest in drawing, 2 CU/kg i.v.): Wants to draw constantly. Will draw
Progress within 3 weeks after the secretin infusion: response to request for gestures ([1]; before infusion: No response, 2 CU/kg i.v.): Responds to all kinds of things
Progress within 3 weeks after the secretin infusion: sentences ([1]; before infusion: No sentences, 2 CU/kg i.v.): Short sentences - such as; “I love you”,
Progress within 3 weeks after the secretin infusion: words spoken ([1]; before infusion: Two words, 2 CU/kg i.v.): 100's of words - will repeat some
Progress within 3 weeks after the secretin infusion: interaction with videos ([1]; before infusion: Watch Videos, 2 CU/kg i.v.): Now, gets “involved” interactively
Serotonin levels in blood ([1]; blood tests after the treatment): rise in serotonin levels; also recorded: increase in serotonin levels
Progress within 3 weeks after the secretin infusion: water consumption ([1]; no change, before infusion: excessive, approximately 50 cups per day, 2 CU/kg i.v.): change approximately 50 cups per cups per day
Results of second and third infusions ([1]; second about 9 months after the first, third about three months after the second): achieved the same results
Chronic abnormal bowel movements ([1]; within days after administration, no change of diet): became normal
Amount of pancreatic juice released [2]: approximately 10 ml/min
Improvements in the patient on daily transdermal administration ([3]; about 15 CU daily with about 4 drops DMSO rubbed into the skin, compared with infusion): even more dramatic and significant improvements
Effect of stopping the daily dose ([3]; daily transdermal dose stopped): autistic behavioral symptoms return
Language progress ([3]; within about 6 months, about 15 CU daily transdermally with DMSO): progressed to spontaneous and conversational language
Abnormal opioid peptides after the secretin infusion [4]: disappeared

Reference: patent US6790825B2, “Method of using secretin and compositions made therefrom for the treatment of autism and other neurological, behavioral and immunological disorders” (Repligen Corporation, priority 1997, dated 2004)
